Source: patent publication US6215002A, “Pyrrolopyrrolone derivatives as inhibitors of neutrophil elastase” (priority 1996, dated 2001)
Structures can show the parent of a compound that is named as a salt.

biological target: T1, human neutrophil elastase (Homo sapiens, UniProt P08246); experiment: In vitro assay of human neutrophil elastase (HNE); format: biochemical; conditions: 118 nM purified human neutrophil elastase, pH 8.6, 15 min incubation at 30° C., MeO-succinyl-alanyl-alanyl-prolyl-valyl-p-nitroanilide substrate; read-out: HNE IC50
T1 sequence (P08246 30-267): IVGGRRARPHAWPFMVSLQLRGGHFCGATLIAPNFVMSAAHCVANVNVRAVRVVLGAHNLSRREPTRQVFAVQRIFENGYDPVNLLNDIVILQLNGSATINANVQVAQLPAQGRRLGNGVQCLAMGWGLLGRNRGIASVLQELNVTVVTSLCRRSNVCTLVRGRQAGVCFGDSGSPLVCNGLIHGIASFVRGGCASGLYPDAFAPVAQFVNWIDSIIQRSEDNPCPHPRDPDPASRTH
In short: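 Residual activity was taken as the 10 min rate of absorbance rise at 405 nm after adding 0.6 mM MeO-succinyl-AAPV-p-nitroanilide. Curve fitting of activity against concentration gave IC50.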

IC50 [nM]	SMILES
81	CCC[C@H]1C(=O)N(S(C)(=O)=O)[C@H]2CCN(C(=O)CCN3CCN(C)CC3)[C@H]12 (relative stereo) [Example 94, rel-(3R,3aR,6aS)-1-Methanesulfonyl-4-[3-(4-methyl-piperazin-1-yl)-propionyl]-3-propyl-hexahydro-pyrrolo[3,2-b]pyrrol-2-one dihydrochloride]
50	CCC[C@H]1C(=O)N(S(=O)(=O)c2ccc3ccccc3c2)[C@H]2CCN(C(=O)CCCCCN3CCCCC3)[C@H]12 (relative stereo) [Example 40, rel-(3R,3aR,6aS)-1-(Naphthalene-2-sulfonyl)-4-(6-piperidin-1-yl-hexanoyl)-3-propyl-hexahydro-pyrrolo[3,2-b]pyrrol-2-one tartrate]
198	CCC[C@H]1C(=O)N(S(C)(=O)=O)[C@H]2CCN(C(=O)CCCN(CC)CC)[C@H]12 (relative stereo) [Example 83, rel-(3R,3aR,6aS)-4-(4-Diethylamino-butyryl)-1-methanesulfonyl-3-propyl-hexahydro-pyrrolo[3,2-b]pyrrol-2-one DL-tartrate]
183	CCC[C@H]1C(=O)N(S(C)(=O)=O)[C@H]2CCN(C(=O)CCCN3CCCC3)[C@H]12 (relative stereo) [Example 89, rel-(3R,3aR,6aS)-1-Methanesulfonyl-3-propyl-4-(4-pyrrolidin-1-yl-butyryl)-hexahydro-pyrrolo[3,2-b]pyrrol-2-one hydrochloride]
75	CCC[C@H]1C(=O)N(S(=O)(=O)c2ccc3ccccc3c2)[C@H]2CCN(S(=O)(=O)Cc3cccc(-c4nnn[nH]4)c3)[C@H]12 (relative stereo) [Example 23, rel-(3R,3aR,6aS)-1(Naphthalene-2-sulfonyl)-3-propyl-4-[3-(1H-tetrazol-5-yl)-phenylmethanesulfonyl]-hexahydro-pyrrolo[3,2-b]pyrrole-2-one]
205	C=CC[C@H]1C(=O)N(S(=O)(=O)c2cccc([N+](=O)[O-])c2)[C@H]2CCN(C(=O)OCc3ccccc3)[C@H]12 (relative stereo) [Example 38, rel-(3aS,6R,6aR)-6-Allyl-4-(3-nitro-benzenesulfonyl)-5-oxo-hexahydro-pyrrolo[3,2-b]pyrrole-1-carboxylic acid benzyl ester]
80	CCC[C@H]1C(=O)N(S(=O)(=O)c2cccc3ccccc23)[C@H]2CCN(S(C)(=O)=O)[C@H]12 (relative stereo) [Example 31, rel-(3R,3aR,6aS)-4-Methanesulfonyl-1-(naphthalene-1-sulfonyl)-3-propyl-hexahydro-pyrrolo[3,2-b]pyrrol-2-one]
208	CCC[C@H]1C(=O)N(S(=O)(=O)c2cccc3nsnc23)[C@H]2CCN(C(=O)CCN3CCCCC3)[C@H]12 (relative stereo) [Example 168, rel-(3R,3aR,6aS)-1-(Benzo[1,2,5]thiadiazole-4-sulfonyl)-4-(3-piperidin-1-yl-propionyl)-3-propyl-hexahydro-pyrrolo[3,2-b]pyrrol-2-one DL-tartrate]
209	CS[C@H]1C(=O)N(S(C)(=O)=O)[C@H]2CCN(C(=O)OCc3ccccc3)[C@H]12 (relative stereo) [Example 157]
38	C=CC[C@H]1C(=O)N(S(=O)(=O)c2ccc3ccccc3c2)[C@H]2CCN(C(=O)OCc3ccccc3)[C@H]12 [Example 55, (3aS,6R,6aR)-6-Allyl-4-(naphthalene-2-sulfonyl)-5-oxo-hexahydro-pyrrolo[3,2-b]pyrrole-1-carboxylic acid benzyl ester]
134	CCC[C@H]1C(=O)N(S(C)(=O)=O)[C@H]2CCN(S(=O)(=O)c3cn(C)cn3)[C@H]12 (relative stereo) [Example 7, rel-(3R,3aR,6aS)-1-Methanesulfonyl-4-(1-methyl-1H-imidazole-4-sulfonyl)-3-propyl-hexahydro-pyrrolo[3,2-b]pyrrol-2-one]
458	CCC[C@H]1C(=O)N(S(=O)(=O)/C=C/c2ccccc2)[C@H]2CCN(S(=O)(=O)Cc3ccccc3)[C@H]12 (relative stereo) [Example 33, rel-(3R,3aR,6aS)-1-(2-Phenyl-(E)-ethenesulfonyl)-4-phenylmethanesulfonyl-3-propyl-hexahydro-pyrrolo[3,2-b]pyrrol-2-one]
180	CCC[C@H]1C(=O)N(S(=O)(=O)c2c(C)noc2C)[C@H]2CCN(C(=O)CCN3CCCCC3)[C@H]12 (relative stereo) [Example 170, rel-(3R,3aR,6aS)-1-(3,5-Dimethyl-isoxazole-4-sulfonyl)-4-(3-piperidin-1-yl-propionyl)-3-propyl-hexahydro-pyrrol[3,2-b]pyrrol-2-one DL-tartrate]
50	CCC[C@H]1C(=O)N(S(C)(=O)=O)[C@H]2CCN(C(=O)CCCCCN3CCN(C)CC3)[C@H]12 (relative stereo) [Example 79, rel-(3R,3aR,6aS)-1-Methanesulfonyl-4-[6-(4-methyl-piperazin-1-yl)-hexanoyl]-3-propyl-hexahydro-pyrrolo[3,2-b]pyrrol-2-one dihydrochloride]
10	C=CC[C@H]1C(=O)N(S(=O)(=O)c2cccc3ccccc23)[C@H]2CCN(C(=O)OCc3ccccc3)[C@H]12 (relative stereo) [Example 15, rel-(3sS,6R,6aR)-6-Allyl-4-(naphthalene-1-sulfonyl)-5-oxo-hexahydro-pyrrolo[3,2-b]pyrrole-1-carboxylic acid benzyl ester]
69	C=CC[C@H]1C(=O)N(S(=O)(=O)c2cccc3c(N(C)C)cccc23)[C@H]2CCN(C(=O)OCc3ccccc3)[C@H]12 (relative stereo) [Example 18, rel-(3aS,6R,6aR)-6-Allyl-4-(5-dimethylamino-naphthalene-1-sulfonyl)-5-oxo-hexahydro-pyrrolo[3,2-b]pyrrole-1-carboxylic acid benzyl ester]
42	CCC[C@H]1C(=O)N(S(C)(=O)=O)[C@H]2CCN(C(=O)CNC(C)=O)[C@H]12 (relative stereo) [Example 114, rel-N-[2-(4-Methanesulfonyl-5-oxo-6R-propyl-hexahydro-(3aS,6aR)-pyrrolo[3,2-b]pyrrol-1-yl)-2-oxo-ethyl]-acetamide]
1030	CCC[C@H]1C(=O)N(S(=O)(=O)C(C)C)[C@H]2CCN(C(=O)CCN3CCCCC3)[C@H]12 (relative stereo) [Example 161, rel-(3R,3aR,6aS)-4-(3Piperidin-1-yl-propionyl)-1-(propane-2-sulfonyl)-3-propyl-hexahydro-pyrrol[3,2-b]pyrrol-2-one DL-tartrate]
134	CCC[C@H]1C(=O)N(S(C)(=O)=O)[C@H]2CCN(C(=O)CCCN3CCC3)[C@H]12 (relative stereo) [Example 84, rel-(3R,3aR,6aS)-4-(4-Azetidin-1-yl-butyryl)-1-methanesulfonyl-3-propyl-hexahydro-pyrrolo[3,2-b]pyrrol-2-one DL-tartrate]
304	CCC[C@H]1C(=O)N(S(C)(=O)=O)[C@H]2CCN(C(=O)Cn3ccc(=O)cc3)[C@H]12 (relative stereo) [Example 113, rel-(3R,3aR,6aS)-1-Methanesulfonyl-4-[(4-oxo-4H-pyridin-1-yl)-acetyl]-3-propyl-hexahydro-pyrrolo[3,2-b]pyrrol-2-one]
